In one assay the target is T1, human α5β1 (Homo sapiens, UniProt P05556+P08648).
T1 construct: human α5β1 purified from placenta; purchased Chemicon CC1055-K; host or cells: human placenta (tissue-purified)
Put plainly: In vitro binding assay: inhibition of α5β1 integrin binding to human fibronectin fragment Fn9-10 (Origen electrochemiluminescence). The following applies: α5β1 integrin binding to biotinylated Fn9-10; IC50 data; unit inferred. From the text:
The assay determined the ability of compounds to inhibit binding of α5β1 integrin to a cognate ligand, a fragment of human fibronectin. The assay used Origen technology (IGEN International) to measure the compound activity. Briefly, α5β1 integrin was coated onto epoxy-paramagnetic beads (Dynal Biotech UK, Bromborough, Wirral, CH62 3QL, UK, Catalogue No 143.02) and biotinylated-fibronectin ligand was coupled to strepatividin labelled BV-Tag-NHS-Ester (BioVeris Corporation, Witney, Oxfordshire, OX28 4GE, UK, Catalogue No JSF396). The ruthenium-labelled BV-Tag emits a electrochemiluminescence signal upon stimulation which is detected by the Origen reader. Thus, interaction of integrin and ligand causes association of bead and tag, and the resulting electrochemiluminescence signal reflects the level of integrin interaction with fibronectin.
Coated beads were then washed into Assay Buffer (25 mM Hepes, 150 mM NaCl, 1 mM MgCl, 1 mM MnCl, 0.1% Tween, pH7.4) to give a final concentration of 20 µg of α5β1/ml. Immediately prior to the assay, the beads were further diluted ×40 fold in Assay Buffer to give a concentration of 0.5 μg α5β1/ml.
A DNA fragment encoding the domains 9-10 (amino-acids 1325-1509) of human fibronectin (Swiss-Prot Acession No. P02751) was isolated from cDNA libraries using standard molecular biology and PCR cloning techniques. The cDNA fragment was sub-cloned into a pT73.3 expression vector containing a GST-epitope tag (developed at AstraZeneca; Bagnall et al., Protein Expression and Purification, 2003, 27: 1-11). Following expression in E. coli, the expressed protein, termed Fn9-10, was purified using the GST-tag using standard purification techniques. The recombinant Fn9-10 was subsequently biotinylated using a EZ-link Sulfo-NHS-LC-Biotinylation kit (Perbio Science UK Ltd., Cramlington, Northumberland, NE23 1WA, UK, Catalogue No. 21335) and made to give a final concentration of approximately 1 mg/ml. BV-Tag-NHS-Ester was is labelled with streptavidin by incubation at room temperature following manufacturers instructions and buffer-exchanged into PBS to give a concentration of 0.5 mg/ml. Immediately prior to the assay, biotinylated-Fn9-10 and Streptavidin-labelled BV-Tag were diluted in Assay Buffer to give a final concentrations of 0.6 ug/ml and 1.5 ug/ml respectively. The Fn9-10 and BV-Tag solutions were then mixed together in equal volumes and incubated on ice for at least 30 minutes prior to the assay.
Test compounds were prepared as 10 mM stock solutions in DMSO (Sigma-Aldrich Company Ltd, Gillingham, Dorset SP8 4XT Catalogue No. 154938) and serially diluted with 4% DMSO to give a range of test concentrations at ×4 required final concentration. Aliquots (20 μl) of each compound dilution were placed into each well of a 384-well round bottomed polypropylene plate (Matrix Technologies, Wilmslow, Cheshire, SK9 3LP, Catalogue No. 4340 384). Each plate also contained control wells: maximum signal was created using wells containing 20 μl of 4% DMSO, and minimum signal corresponding to no binding was created using wells containing 20 μl of 80 mM EDTA (Sigma Catalogue No. E7889).
For the assay, 20 μl of a5b1-bead suspension and 40 μl of the Fn9-10/BV-Tag preincubated solution were added to each well containing 20 μl of compound or control solution. Assay plates were then incubated at room temperature for a minimum of 6 hours before being analysed on the Origen plate reader. […]

In assay [1] the target is T2, a5β1 integrin mediated adhesion of K562 cells (Homo sapiens, UniProt P05556+P08648).
T2 construct: a5β1 integrin mediated adhesion of K562 cells; host or cells: K562 human erythroleukaemia cells
T2 sequence (P08648 42-894 limits assumed): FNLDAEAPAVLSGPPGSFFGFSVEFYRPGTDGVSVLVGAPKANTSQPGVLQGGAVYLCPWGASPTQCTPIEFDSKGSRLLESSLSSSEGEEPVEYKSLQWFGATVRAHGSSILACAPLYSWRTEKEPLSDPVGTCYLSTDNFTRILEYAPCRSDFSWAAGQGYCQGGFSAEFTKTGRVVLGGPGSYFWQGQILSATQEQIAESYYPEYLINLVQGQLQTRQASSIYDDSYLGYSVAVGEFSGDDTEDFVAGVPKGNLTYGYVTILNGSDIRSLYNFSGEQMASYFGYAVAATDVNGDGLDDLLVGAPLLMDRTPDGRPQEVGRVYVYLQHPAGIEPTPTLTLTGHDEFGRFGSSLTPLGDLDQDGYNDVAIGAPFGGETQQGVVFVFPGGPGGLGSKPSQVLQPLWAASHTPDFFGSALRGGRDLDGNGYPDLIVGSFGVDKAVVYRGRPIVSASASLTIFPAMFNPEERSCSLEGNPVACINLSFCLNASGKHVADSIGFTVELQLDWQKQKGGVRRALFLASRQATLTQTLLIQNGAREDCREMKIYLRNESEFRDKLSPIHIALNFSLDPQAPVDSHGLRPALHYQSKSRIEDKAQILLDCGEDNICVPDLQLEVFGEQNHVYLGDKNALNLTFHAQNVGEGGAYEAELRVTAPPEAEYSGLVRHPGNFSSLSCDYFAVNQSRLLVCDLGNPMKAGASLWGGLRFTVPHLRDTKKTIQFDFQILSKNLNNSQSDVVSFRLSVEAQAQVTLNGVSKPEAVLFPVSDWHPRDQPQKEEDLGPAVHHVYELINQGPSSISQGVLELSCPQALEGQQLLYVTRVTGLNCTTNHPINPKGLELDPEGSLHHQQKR
T2 sequence (P08648 895-1049 partner limits assumed): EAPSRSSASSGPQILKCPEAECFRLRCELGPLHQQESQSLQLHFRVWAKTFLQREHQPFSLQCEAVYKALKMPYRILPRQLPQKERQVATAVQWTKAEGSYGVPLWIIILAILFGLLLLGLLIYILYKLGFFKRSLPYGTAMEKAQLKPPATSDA
T2 sequence (P05556 21-798): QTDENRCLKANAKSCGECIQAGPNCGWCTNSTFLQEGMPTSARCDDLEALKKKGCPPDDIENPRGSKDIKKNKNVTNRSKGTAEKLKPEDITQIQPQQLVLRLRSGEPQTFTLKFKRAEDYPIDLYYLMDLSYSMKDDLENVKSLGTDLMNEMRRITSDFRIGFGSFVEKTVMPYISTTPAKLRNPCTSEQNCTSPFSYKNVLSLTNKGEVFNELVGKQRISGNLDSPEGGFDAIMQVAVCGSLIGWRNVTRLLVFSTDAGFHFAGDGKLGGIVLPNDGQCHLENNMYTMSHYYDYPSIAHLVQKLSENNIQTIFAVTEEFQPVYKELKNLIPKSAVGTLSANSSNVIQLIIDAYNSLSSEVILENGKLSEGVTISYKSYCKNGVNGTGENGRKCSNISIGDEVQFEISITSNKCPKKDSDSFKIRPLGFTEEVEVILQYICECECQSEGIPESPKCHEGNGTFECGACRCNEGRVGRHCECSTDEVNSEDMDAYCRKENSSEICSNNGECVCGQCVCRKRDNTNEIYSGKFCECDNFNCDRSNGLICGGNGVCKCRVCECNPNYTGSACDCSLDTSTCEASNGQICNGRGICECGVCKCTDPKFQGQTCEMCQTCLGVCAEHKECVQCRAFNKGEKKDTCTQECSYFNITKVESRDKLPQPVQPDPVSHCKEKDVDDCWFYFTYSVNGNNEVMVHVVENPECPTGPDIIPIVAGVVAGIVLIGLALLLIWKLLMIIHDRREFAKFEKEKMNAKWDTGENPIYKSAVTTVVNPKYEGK
In words: In vitro cell adhesion assay: adhesion of K562 cells to fibronectin fragment Fn9-10 (crystal violet). It is filed as cell-based. The conditions noted are these: K562 cells on Fn9-10 coated plates, 0.2 mM MnCl, 45 minutes; IC50 data; unit inferred. From the text: The assay determined the ability of compounds to inhibit the a5β1 integrin mediated adhesion of K562 cells to the ligand, a fragment of human fibronectin. The human K562 erythroleukaemia cell line (LGC Promochem, Teddington, Middlesex, UK, Catalogue No. CCL-243) was routinely maintained in RPMI 1640 medium (Sigma-Aldrich Company Ltd, Gillingham, Dorset SP8 4XT, Catalogue No. R0883) containing 10% heat-inactivated foetal calf serum (PAA lab GmbH, Pasching, Austria Catalogue No. PAA-A15-043) and 1% glutamax-1 (Invitrogen Ltd. Paisley, UK Catalogue No. 35050-038) at 37° C. with 5% CO2 at densities between 1×10^5 and 1×10^6 cells/ml.
A DNA fragment encoding the domains 9-10 (amino-acids 1325-1509) of human fibronectin (Swiss-Prot Acession No. P02751) was isolated from cDNA libraries using standard molecular biology and PCR cloning techniques. The cDNA fragment was sub-cloned into a pT7#3.3 expression vector containing a GST-epitope tag (developed at AstraZeneca; Bagnall et al., Protein Expression and Purification, 2003, 27: 1-11), and the fragment termed Fn9-10. Following expression in E. coli, the expressed protein was purified using the GST-tag using standard purification techniques.
For adhesion assay, a 96-well flat bottomed plate (Greiner Bio one ltd., Gloucester GL10 3SX Catalogue No. 655101) was coated overnight at 4° C. with 100 μl of 20 μg/ml Fn9-10 ligand in Dulbecco's PBS (Gibco#14190-94). The plate was then washed twice with 200 μl of PBS and blocked with 100 μl of 3% BSA (SigmaA7888) in PBS for 1 hour at 37° C. The plates were then washed again 3 times with 200 μl of PBS and left empty.
Test compounds were prepared as 10 mM stock solutions in DMSO (Sigma-Aldrich Company Ltd, Gillingham, Dorset SP8 4XT Catalogue No. 154938) and serially diluted with HBSS (Hanks Buffered Salt solution (Gibco Catalogue No. 14170-088)/2% DMSO to give a range of test concentrations at twice required final concentration. Aliquots (50 μl) of each compound dilution were placed into each well of the Fn9-10 coated plates. Each plate also contained control wells: maximum adhesion signal was created using wells containing 50 μl HBSS/2% DMSO, and minimum signal corresponding to no adhesion was created using wells containing 50 μl HBSS/2% DMSO/20 mM EDTA (Sigma Catalogue No. E7889).
The K562 cells were cultured to ˜1×10^6 cells/ml, and each culture suspension pooled. Cells were centrifuged at 1200 rpm for 2 mins, and the pellets washed with HBSS followed by HBSS/50 mM HEPES (Sigma Catalogue No. H0887). Cell pellets were pooled and resuspended in HBSS/0.4 mM manganese chloride/50 mM HEPES (MnCl; Sigma Catalogue No. M1787) to give a final concentration of 4×10^6 cells/ml.
The assay was initiated by the addition of 50 μl of cell suspension into each coated well (200,000 cells/well), thus resulting in final desired compound concentration and a final MnCl concentration of 0.2 mM. The plates were incubated for 45 minutes at 37° C. 5% CO2. […]
After fixation, the ethanol was flicked off to waste and 100 μl of 0.1% Crystal violet stain was added to each well, and incubated at ambient temperature for 15 minutes. […] Finally, 100 μl of deionised water was added to each well and the absorbance was determined at 590 nm on a spectrophotometer. The minimum value was subtracted from all values, and the absorbance signal was plotted against compound concentration to generate IC50 data.

T1 sequence (P08648 42-894 limits assumed): as the sequence (P08648 42-894 limits assumed) above
T1 sequence (P08648 895-1049 partner limits assumed): as the sequence (P08648 895-1049 partner limits assumed) above
T1 sequence (P05556 21-798): as the sequence (P05556 21-798) above

One may read the IC50 as the concentration needed to halve the response being measured. Low values mean higher potency, high ones lower potency. In the case of `N#Cc1cccc(CN2CCC(Oc3ccc(C[C@H](NC(=O)c4c(Cl)cccc4Cl)C(=O)O)cc3)CC2)c1` [Example 83, O-[1-(3-cyanobenzyl)piperidin-4-yl]-N-(2,6-dichlorobenzoyl)-L-tyrosine], the results for the IC50 (at human α5β1; in assay [1]) were 1.7 µM and 6.6 µM, respectively.

Consider `O=C(N[C@@H](Cc1ccc(O[C@H]2CCCN(Cc3cc(F)ccc3F)C2)cc1)C(=O)O)c1c(Cl)cccc1Cl` [Example 76, N-(2,6-dichlorobenzoyl)-O-[(3S)-1-(2,5-difluorobenzyl)piperidin-3-yl]-L-tyrosine], for which the half-inhibitory concentration (IC50) on human α5β1 was 4.1 µM; in assay [1], 11.4 µM.

As to `Cc1cc(C(=O)N2CC(Oc3ccc(C[C@H](NC(=O)c4c(Cl)cccc4Cl)C(=O)O)cc3)C2)ccc1F` [Example 48, N-(2,6-dichlorobenzoyl)-O-[1-(4-fluoro-3-methylbenzoyl)azetidin-3-yl]-L-tyrosine], the IC50 at human α5β1 came to 0.466 µM; in assay [1], 4 µM.

For the molecule `CN1CCC(Oc2ccc(C[C@H](NC(=O)c3c(Cl)cccc3Cl)C(=O)O)cc2)CC1` [Example 20, N-(2,6-Dichlorobenzoyl)-O-(1-methylpiperidin-4-yl)-L-tyrosine], the half-inhibitory concentration (IC50) stood at 0.185 µM at human α5β1 and 2.4 µM in assay [1].

As to “N-(2,6-Dichlorobenzoyl)-O-[(3R)-pyrrolidin-3-yl]-L-tyrosine [Example 17]”, the IC50 at human α5β1 stood at 1.2 µM; in assay [1], 9.3 µM.

Source of the values: US20090203663A1, “CHEMICAL COMPOUNDS” (AstraZeneca AB, priority 2006, published 2009).
